Experimental data taken from patent publication US8815535B2, “Disk diffusion assay for oritavancin” (The Medicines Company, priority 2011, dated 2014).
In brackets after ≈: the same amount, converted by molar mass.

Columns and labels:
Format in all cases: cell-based
MRSA ATCC 33591 [1] = assay: Disk diffusion assay (zone of inhibition); details: Staphylococcus aureus, 25 μg (1.25 mg/ml) in 4% P80/Span 80 (1:1), dried overnight, read-out: Inhibition zone diameter
Protocol: (§1) Oritavancin powder was dissolved in freshly-prepared solutions of the indicated excipients at concentrations of 0.625, 1.25, 2.5, 5, and 10 mg/ml (adjusted for potency based on lot 875561L00 purity of 83.1%) by vortexing for a minimum of 5 minutes. Oritavancin solutions in the various excipients, while not visually clear, were free from any apparent particulates as assessed visually. Sterile Oxoid blank disks were impregnated with 20 μl of these oritavancin solutions, resulting in oritavancin disk loads ranging from 12.5 to 200 μg. Unless indicated otherwise, disks were allowed to dry overnight at room temperature prior to use.
(§2) Bacterial suspensions from isolated colonies on overnight cation-adjusted Mueller Hinton agar plates were prepared in sterile saline and adjusted to an optical density of 0.1 at 600 nm Standard cation-adjusted Mueller Hinton agar plates (90 mm diameter) were seeded with bacterial suspensions by initially swabbing the center of plate then moving outward. Swabbing was continued at a right angle and then at an oblique angle to the first and second swabs. Disks were placed upon the seeded plates with sterile forceps. Plates were then incubated overnight at 37° C. and inhibition zone diameters were measured with a ruler and reported in millimeters.

MRSA T998528 [2] = assay: Disk diffusion assay (zone of inhibition); details: Staphylococcus aureus, 20 μl of 1.25 mg/ml in 4% P80/Span 80 (1:1), calcium alginate swabs, dried overnight, duplicate, read-out: Inhibition zone diameter
Protocol: as §1, §2

MRSA T998608 = assay: Disk diffusion assay (zone of inhibition); details: Staphylococcus aureus, 20 μl of 1.25 mg/ml in 4% P80/Span 80 (1:1), calcium alginate swabs, dried overnight, duplicate, read-out: Inhibition zone diameter
Protocol: as §1, §2

MRSA U784439 = assay: Disk diffusion assay (zone of inhibition); details: Staphylococcus aureus, 20 μl of 1.25 mg/ml in 4% P80/Span 80 (1:1), calcium alginate swabs, dried overnight, duplicate, read-out: Inhibition zone diameter
Protocol: as §1, §2

MRSA V288615 = assay: Disk diffusion assay (zone of inhibition); details: Staphylococcus aureus, 20 μl of 1.25 mg/ml in 4% P80/Span 80 (1:1), calcium alginate swabs, dried overnight, duplicate, read-out: Inhibition zone diameter
Protocol: as §1, §2

MRSA V406957 [3] = assay: Disk diffusion assay (zone of inhibition); details: Staphylococcus aureus, 20 μl of 1.25 mg/ml in 4% P80/Span 80 (1:1), calcium alginate swabs, dried overnight, duplicate, read-out: Inhibition zone diameter
Protocol: as §1, §2

MSSA Q141066 [4] = assay: Disk diffusion assay (zone of inhibition); details: Staphylococcus aureus, 20 μl of 1.25 mg/ml in 4% P80/Span 80 (1:1), calcium alginate swabs, dried overnight, duplicate, read-out: Inhibition zone diameter
Protocol: as §1, §2

MSSA T759545 [5] = assay: Disk diffusion assay (zone of inhibition); details: Staphylococcus aureus, 20 μl of 1.25 mg/ml in 4% P80/Span 80 (1:1), calcium alginate swabs, dried overnight, duplicate, read-out: Inhibition zone diameter
Protocol: as §1, §2

MSSA U148267 [6] = assay: Disk diffusion assay (zone of inhibition); details: Staphylococcus aureus, 20 μl of 1.25 mg/ml in 4% P80/Span 80 (1:1), calcium alginate swabs, dried overnight, duplicate, read-out: Inhibition zone diameter
Protocol: as §1, §2

MSSA V406985 [7] = assay: Disk diffusion assay (zone of inhibition); details: Staphylococcus aureus, 20 μl of 1.25 mg/ml in 4% P80/Span 80 (1:1), calcium alginate swabs, dried overnight, duplicate, read-out: Inhibition zone diameter
Protocol: as §1, §2

MRSA ATCC 33591 [8] = assay: Broth microdilution (BMD) MIC; details: Staphylococcus aureus, read-out: Oritavancin BMD MIC
Excerpt: (§3) To date, only the broth microdilution (BMD) minimal inhibitory concentration (MIC) test is a reference method accepted by the Clinical Laboratory Standards Institute (CLSI) for use in determining the susceptibility of a bacterial isolate to oritavancin (Methods for Dilution Antimicrobial Susceptibility Tests for Bacteria That Grow Aerobically; Approved Standard, CLSI document M7-A8, 8th ed. Clinical and Laboratory Standards Institute, Wayne, Pa. 2009; Performance Standards for Antimicrobial Susceptibility Testing; Eighteenth Informational Supplement, CLSI document M100-S18, 7th ed. Clinical and Laboratory Standards Institute, Wayne, Pa. 2008).

MRSA NRS121-ORI^RS = assay: Broth microdilution (BMD) MIC; details: Staphylococcus aureus; MRSA NRS121-ORI^RS (oritavancin reduced-susceptibility isolate)
Excerpt: as §3

MRSA NRS121 = assay: Broth microdilution (BMD) MIC; details: Staphylococcus aureus, read-out: Oritavancin BMD MIC
Excerpt: as §3

MRSA NRS123-ORI^RS = assay: Broth microdilution (BMD) MIC; details: Staphylococcus aureus; MRSA NRS123-ORI^RS (oritavancin reduced-susceptibility isolate)
Excerpt: as §3

MRSA Q141067 = assay: Broth microdilution (BMD) MIC; details: Staphylococcus aureus, read-out: Oritavancin BMD MIC
Excerpt: as §3

MRSA Q670505 = assay: Broth microdilution (BMD) MIC; details: Staphylococcus aureus, read-out: Oritavancin BMD MIC
Excerpt: as §3

MRSA Q670607 = assay: Broth microdilution (BMD) MIC; details: Staphylococcus aureus, read-out: Oritavancin BMD MIC
Excerpt: as §3

MRSA T998528 [9] = assay: Broth microdilution (BMD) MIC; details: Staphylococcus aureus, read-out: Oritavancin BMD MIC
Excerpt: as §3

MRSA U206056 = assay: Broth microdilution (BMD) MIC; details: Staphylococcus aureus, read-out: Oritavancin BMD MIC
Excerpt: as §3

MRSA U260847 = assay: Broth microdilution (BMD) MIC; details: Staphylococcus aureus, read-out: Oritavancin BMD MIC
Excerpt: as §3

MRSA U933237 = assay: Broth microdilution (BMD) MIC; details: Staphylococcus aureus, read-out: Oritavancin BMD MIC
Excerpt: as §3

MRSA V406957 [10] = assay: Broth microdilution (BMD) MIC; details: Staphylococcus aureus, read-out: Oritavancin BMD MIC
Excerpt: as §3

MSSA Q141066 [11] = assay: Broth microdilution (BMD) MIC; details: Staphylococcus aureus, read-out: Oritavancin BMD MIC
Excerpt: as §3

MSSA S815246 = assay: Broth microdilution (BMD) MIC; details: Staphylococcus aureus, read-out: Oritavancin BMD MIC
Excerpt: as §3

MSSA S815247 = assay: Broth microdilution (BMD) MIC; details: Staphylococcus aureus, read-out: Oritavancin BMD MIC
Excerpt: as §3

MSSA T759545 [12] = assay: Broth microdilution (BMD) MIC; details: Staphylococcus aureus, read-out: Oritavancin BMD MIC
Excerpt: as §3

MSSA T811355 = assay: Broth microdilution (BMD) MIC; details: Staphylococcus aureus, read-out: Oritavancin BMD MIC
Excerpt: as §3

MSSA T972018 = assay: Broth microdilution (BMD) MIC; details: Staphylococcus aureus, read-out: Oritavancin BMD MIC
Excerpt: as §3

MSSA U148267 [13] = assay: Broth microdilution (BMD) MIC; details: Staphylococcus aureus, read-out: Oritavancin BMD MIC
Excerpt: as §3

MSSA U781969 = assay: Broth microdilution (BMD) MIC; details: Staphylococcus aureus, read-out: Oritavancin BMD MIC
Excerpt: as §3

MSSA U933236 = assay: Broth microdilution (BMD) MIC; details: Staphylococcus aureus, read-out: Oritavancin BMD MIC
Excerpt: as §3

MSSA V406985 [14] = assay: Broth microdilution (BMD) MIC; details: Staphylococcus aureus, read-out: Oritavancin BMD MIC
Excerpt: as §3

VISA NRS3 = assay: Broth microdilution (BMD) MIC; details: Staphylococcus aureus, read-out: Oritavancin BMD MIC
Excerpt: as §3

hVISA NRS2 = assay: Broth microdilution (BMD) MIC; details: Staphylococcus aureus, read-out: Oritavancin BMD MIC
Excerpt: as §3

hVISA NRS36 = assay: Broth microdilution (BMD) MIC; details: Staphylococcus aureus, read-out: Oritavancin BMD MIC
Excerpt: as §3

S. aureus isolates = assay: Broth microdilution (BMD) MIC, panel of isolates; details: Staphylococcus aureus, wild-type susceptibility to oritavancin
Excerpt: as §3

CN[C@H](CC(C)C)C(=O)N[C@H]1C(=O)N[C@@H](CC(N)=O)C(=O)N[C@H]2C(=O)N[C@H]3C(=O)N[C@H](C(=O)N[C@H](C(=O)O)c4cc(O)cc(O)c4-c4cc3ccc4O)[C@H](O[C@H]3C[C@](C)(N)[C@@H](O)[C@H](C)O3)c3ccc(c(Cl)c3)Oc3cc2cc(c3O[C@@H]2O[C@H](CO)[C@@H](O)[C@H](O)[C@H]2O[C@H]2C[C@](C)(NCc3ccc(-c4ccc(Cl)cc4)cc3)[C@@H](O)[C@H](C)O2)Oc2ccc(cc2Cl)[C@H]1O [oritavancin, N-(4-(4-chlorophenyl)benzyl)A82846B]
zone of inhibition at 25 µg/disc (MRSA ATCC 33591 [1]): 22 mm
zone of inhibition at 1250 µg/mL (MRSA T998528 [2]): 21 mm
zone of inhibition at 1250 µg/mL (MRSA T998608): 22 mm
zone of inhibition at 1250 µg/mL (MRSA U784439): 20 mm
zone of inhibition at 1250 µg/mL (MRSA V288615): 23 mm
zone of inhibition at 1250 µg/mL (MRSA V406957 [3]): 21 mm
zone of inhibition at 1250 µg/mL (MSSA Q141066 [4]): 20 mm
zone of inhibition at 1250 µg/mL (MSSA T759545 [5]): 22 mm
zone of inhibition at 1250 µg/mL (MSSA U148267 [6]): 21 mm
zone of inhibition at 1250 µg/mL (MSSA V406985 [7]): 24 mm
MIC (MRSA ATCC 33591 [8]): 0.06 µg/mL (≈ 0.0335 µM)
MIC (MRSA NRS121-ORI^RS): 0.5 µg/mL (≈ 0.279 µM)
MIC (MRSA NRS121): 0.06 µg/mL (≈ 0.0335 µM)
MIC (MRSA NRS123-ORI^RS): 0.25 µg/mL (≈ 0.139 µM)
MIC (MRSA Q141067): 0.015 µg/mL (≈ 0.00837 µM)
MIC (MRSA Q670505): 0.25 µg/mL (≈ 0.139 µM)
MIC (MRSA Q670607): 0.03 µg/mL (≈ 0.0167 µM)
MIC (MRSA T998528 [9]): 0.015 µg/mL (≈ 0.00837 µM)
MIC (MRSA U206056): 0.25 µg/mL (≈ 0.139 µM)
MIC (MRSA U260847): 0.06 µg/mL (≈ 0.0335 µM)
MIC (MRSA U933237): 0.12 µg/mL (≈ 0.0669 µM)
MIC (MRSA V406957 [10]): 0.12 µg/mL (≈ 0.0669 µM)
MIC (MSSA Q141066 [11]): 0.03 µg/mL (≈ 0.0167 µM)
MIC (MSSA S815246): 0.03 µg/mL (≈ 0.0167 µM)
MIC (MSSA S815247): 0.015 µg/mL (≈ 0.00837 µM)
MIC (MSSA T759545 [12]): 0.015 µg/mL (≈ 0.00837 µM)
MIC (MSSA T811355): 0.03 µg/mL (≈ 0.0167 µM)
MIC (MSSA T972018): 0.5 µg/mL (≈ 0.279 µM)
MIC (MSSA U148267 [13]): 0.015 µg/mL (≈ 0.00837 µM)
MIC (MSSA U781969): 0.03 µg/mL (≈ 0.0167 µM)
MIC (MSSA U933236): 0.06 µg/mL (≈ 0.0335 µM)
MIC (MSSA V406985 [14]): 0.12 µg/mL (≈ 0.0669 µM)
MIC (VISA NRS3): 1 µg/mL (≈ 0.558 µM)
MIC (hVISA NRS2): 0.25 µg/mL (≈ 0.139 µM)
MIC (hVISA NRS36): 1 µg/mL (≈ 0.558 µM)
MIC90 (S. aureus isolates): 0.12 µg/mL (≈ 0.0669 µM)
